Measurements as given in patent EP0123217A1, “1-(4-(4-(Fluoralkylmethylthio or sulfinyl or sulfinyl-)phenoxy)phenyl)-1,3,5-triazine-2,4,6(1H-3H,5H)triones, process for their preparation and their use as agents against coccidiosis” (BAYER AG, priority 1983, dated 1984).
Structures can show the parent of a compound that is named as a salt.

Legend:
E. falciformis = test: Coccidiosis in mice, minimum effective dose (oocyst excretion, clinical symptoms, mortality); type: in vivo, Eimeria falciformis; conditions: for minimal effective dose: Eimeria falciformis, mice (15 g), infected with 10,000 sporulated oocysts, treated on days 1, 2, 3, 6, 7 and 8 after infection, read-out: wirksame Mindestdosierung E. falciformis
Excerpt: Die coccidiostatische Aktivität von Verbindungen, die für die Verbindungen gemäß der Erfindung repräsentativ sind, wird in Tabelle 1 veranschaulicht, wo Eimeria tenella (Blinddarm-Coccidiose/Hühner), Eimeria acervulina und Eimeria maxima (Dünndarm-Coccidiose von Hühnern) als Beispiele der Aktivität im Falle der Coddidiose bei Geflügel genannt sind, während Eimeria falciformus (Coccidiose/Mäuse) als Coccidium bei Säugetieren angegeben ist.
Die Behandlung der Infektion mit Eimeria falciformis bei Mäusen, die als Beispiel der Coccidiose bei Säugetieren erwähnt ist, fand am ersten, zweiten, dritten, sechsten, siebten und achten Tag nach der Infektion statt. Die Infektion erfolgte mit.10,000 sporulierten Oozysten pro Maus (Gewicht 15 g). Im Falle der unbehandelten Vergleichstiere fanden massive Ausscheidung von Oozysten, blutiger Durchfall und 30 % Sterblichkeit der Tiere, die der Infektion zuzuschreiben waren, vom siebten Tage nach der Infektion an statt.
Als wirksam wurden diejenigen Dosen angesehen, die die Ausscheidung von Oozysten und/oder klinische Symptome der Coccidiose einschließlich der Mortalität vollständig oder in hohem Maße verhüteten.

E. tenella = test: Coccidiosis in chicks, minimum effective dose (oocyst excretion, clinical symptoms, mortality); type: in vivo, Eimeria tenella
E. acervulina = test: as above; type: in vivo, Eimeria acervulina
E. maxima = test: as above; type: in vivo, Eimeria maxima
[1] = chicks 9 to 11 days old, infected with 4000 sporulated oocysts, compound given from 3 days before to 8 days after infection

| SMILES | minimal effective dose (E. falciformis) | wirksame Mindestdosierung E. tenella (E. tenella; [1]) | wirksame Mindestdosierung E. acervulina (E. acervulina; [1]) | wirksame Mindestdosierung E. maxima (E. maxima; [1]) | wirksame Mindestdosierung E. falciformis (E. falciformis; in vivo) | wirksame Mindestdosierung E. tenella (E. tenella; in vivo) | wirksame Mindestdosierung E. acervulina (E. acervulina; in vivo) | wirksame Mindestdosierung E. maxima (E. maxima; in vivo) |
| --- | --- | --- | --- | --- | --- | --- | --- | --- |
| COc1cc(-n2c(=O)[nH]c(=O)n(C)c2=O)ccc1Oc1ccc(SCC(F)(F)F)cc1 [[drawing] r4] | 25 mg/kg | 50 ppm | 50 ppm | 50 ppm | – | – | – | – |
| CCCc1ncc(C[n+]2ccccc2C)c(N)n1 [A, 1[(4-Amino-2-propyl-5-pyrimidinyl)-methyl]-2-picoliniumchloridhydrochlorid, reference compound] | 500 mg/kg | 125 ppm | 125 ppm | 125 ppm | – | – | – | – |
| Cn1c(=O)[nH]c(=O)n(-c2cc(Cl)c(Oc3ccc(S(=O)(=O)CC(F)(F)F)cc3)c(Cl)c2)c1=O [[drawing] r5] | 100 mg/kg | 10 ppm | 10 ppm | 10 ppm | – | – | – | – |
| CCC1(C2OC(C3OC(O)(CO)C(C)CC3C)CC2C)CCC(C2(C)CCC3(CC(O)C(C)C(C(C)C(OC)C(C)C(=O)O)O3)O2)O1 (centres unmarked) [M, reference compound] | – | – | – | – | 250 mg/kg | 75 ppm | 50 ppm | 50 ppm |
| Cn1c(=O)[nH]c(=O)n(-c2cc(Cl)c(Oc3ccc(SCC(F)(F)F)cc3)c(Cl)c2)c1=O [[drawing] r3] | 1 mg/kg | 50 ppm | 25 ppm | 25 ppm | – | – | – | – |
